The structures appear in SMILES notation. Values joined by “and” are separate entries in the source; they are usually repeats but may differ in a detail not shown here. Identical values can stand only once. Toxic doses and inconclusive results are not listed.

This experiment deals with BDF1 mice, intracerebral B16 melanoma, median survival T/C. In words: NCI In Vivo Anticancer Drug Screen. Data for tumor model B16 Melanoma (intracerebral) in B6D2F1 (BDF1) mice. The note with it: endpoint: median survival time, higher = longer survival. Here is the method:
The antitumor activity of compounds was measured in mice bearing transplantable tumors. Survival or tumor size were measured and the results are expressed as the measurement made in the treated group (T) divided by the measurement made in the vehicle treated control group (C). The tumor model used in this assay is B16 Melanoma (intracerebral) in B6D2F1 (BDF1) mice

[1] abbreviates: dose: 100.0 mg/kg/injection, schedule: Q01DX009 (ip), vehicle: saline.
Where [2] appears, read: dose: 32.0 mg/kg/injection, schedule: Q01DX005 (ip), vehicle: saline with Tween-80.
[3] abbreviates: dose: 64.0 mg/kg/injection, schedule: Q01DX005 (ip), vehicle: saline with Tween-80.

Turning to `O=P1(N(CCCl)CCCl)NCCCO1` (stereo unspecified), the T/C (dose: 12.5 mg/kg/injection, schedule: Q01DX009 (ip), vehicle: saline) was 116 % of control and 92 % of control; the T/C (dose: 12.5 mg/kg/injection, schedule: Q01DX009 (ip), vehicle: water) is 108 % of control; the T/C (dose: 25.0 mg/kg/injection, schedule: Q01DX009 (ip), vehicle: saline) is 100 % of control and 108 % of control; the T/C (dose: 25.0 mg/kg/injection, schedule: Q01DX009 (ip), vehicle: water) was 116 % of control; the T/C (dose: 50.0 mg/kg/injection, schedule: Q01DX009 (ip), vehicle: saline) is 120 % of control and 121 % of control; the T/C under setting [1] was 95 % of control. Further, the T/C (dose: 100.0 mg/kg/injection, schedule: Q01DX009 (ip), vehicle: water) was 104 % of control.

For `O=CC(NC(=O)N(CCF)N=O)C(O)C(O)C(O)CO` (stereo unspecified), the T/C is 107 % of control (dose: 26.7 mg/kg/injection, schedule: Q01DX001 (ip), vehicle: Klucel (hydroxypropylcellulose) (HPC)); 109 % of control (dose: 40.0 mg/kg/injection, schedule: Q01DX001 (ip), vehicle: Klucel (hydroxypropylcellulose) (HPC)); 118 % of control (dose: 60.0 mg/kg/injection, schedule: Q01DX001 (ip), vehicle: Klucel (hydroxypropylcellulose) (HPC)).

Regarding `CCC(=O)O[C@H]1CC[C@H]2[C@@H]3CCC4=CC(=O)CC[C@]4(C)[C@H]3CC[C@]12C`, the T/C (dose: 8.0 mg/kg/injection, schedule: Q01DX009 (ip), vehicle: Klucel (hydroxypropylcellulose) (HPC)) was 99 % of control; the T/C (dose: 16.0 mg/kg/injection, schedule: Q01DX009 (ip), vehicle: Klucel (hydroxypropylcellulose) (HPC)) is 116 % of control; the T/C (dose: 32.0 mg/kg/injection, schedule: Q01DX009 (ip), vehicle: Klucel (hydroxypropylcellulose) (HPC)) is 111 % of control; the T/C (dose: 64.0 mg/kg/injection, schedule: Q01DX009 (ip), vehicle: Klucel (hydroxypropylcellulose) (HPC)) was 99 % of control; the T/C (dose: 128.0 mg/kg/injection, schedule: Q01DX009 (ip), vehicle: Klucel (hydroxypropylcellulose) (HPC)) is 123 % of control; the T/C (dose: 256.0 mg/kg/injection, schedule: Q01DX009 (ip), vehicle: Klucel (hydroxypropylcellulose) (HPC)) is 97 % of control. Also, the T/C (dose: 512.0 mg/kg/injection, schedule: Q01DX009 (ip), vehicle: Klucel (hydroxypropylcellulose) (HPC)) is 104 % of control.

With `NC(Cc1ccc(N(CCCl)CCCl)cc1)C(=O)O` (stereo unspecified), the T/C (dose: 2.0 mg/kg/injection, schedule: Q01DX009 (ip), vehicle: water) is 120 % of control.

As for `CN(CO)c1nc(N(C)CO)nc(N(C)CO)n1`, the T/C runs as follows: (dose: 50.0 mg/kg/injection, schedule: Q01DX009 (ip), vehicle: Klucel (hydroxypropylcellulose) (HPC)) 100 % of control and 104 % of control; (dose: 100.0 mg/kg/injection, schedule: Q01DX009 (ip), vehicle: Klucel (hydroxypropylcellulose) (HPC)) 120 % of control and 106 % of control.

In the case of `O=C1C(=O)c2ccccc2C(O)=C1CC=C(Cl)Cl`, the T/C is, setting by setting: (dose: 10.0 mg/kg/injection, schedule: Q01DX005 (ip), vehicle: Klucel (hydroxypropylcellulose) (HPC)) 101 % of control; (dose: 20.0 mg/kg/injection, schedule: Q01DX005 (ip), vehicle: Klucel (hydroxypropylcellulose) (HPC)) 98 % of control; (dose: 40.0 mg/kg/injection, schedule: Q01DX005 (ip), vehicle: Klucel (hydroxypropylcellulose) (HPC)) 106 % of control.

In the case of `Cc1cn(C2CC(O)C(CO)O2)c(=O)[nH]c1=O` (stereo unspecified), the T/C reads like this: (dose: 100.0 mg/kg/injection, schedule: Q01DX009 (ip), vehicle: saline with Tween-80) 102 % of control and 109 % of control; under setting [1], 100 % of control and 111 % of control; (dose: 200.0 mg/kg/injection, schedule: Q01DX009 (ip), vehicle: saline with Tween-80) 105 % of control; (dose: 200.0 mg/kg/injection, schedule: Q01DX009 (ip), vehicle: saline) 103 % of control and 110 % of control; (dose: 400.0 mg/kg/injection, schedule: Q01DX009 (ip), vehicle: saline with Tween-80) 105 % of control; (dose: 400.0 mg/kg/injection, schedule: Q01DX009 (ip), vehicle: saline) 94 % of control and 101 % of control. The T/C was 124 % of control and 95 % of control (dose: 800.0 mg/kg/injection, schedule: Q01DX009 (ip), vehicle: saline with Tween-80); 100 % of control and 107 % of control (dose: 800.0 mg/kg/injection, schedule: Q01DX009 (ip), vehicle: saline); 92 % of control and 94 % of control (dose: 1600.0 mg/kg/injection, schedule: Q01DX009 (ip), vehicle: saline with Tween-80).

With `CCCCN(C)N=Nc1c(C(N)=O)n[nH]c1C`, the T/C under setting [2] was 121 % of control.

With `CCCCN(C)N=Nc1ccc([N+](=O)[O-])cc1C(N)=O`, the T/C is 121 % of control under setting [2]; 116 % of control under setting [3]; 154 % of control (dose: 256.0 mg/kg/injection, schedule: Q01DX005 (ip), vehicle: saline with Tween-80); 152 % of control (dose: 512.0 mg/kg/injection, schedule: Q01DX005 (ip), vehicle: saline with Tween-80).

Regarding `CCN(CC)CCCC(C)Nc1c2ccc(Cl)cc2nc2ccc(OC)cc12` (stereo unspecified), the T/C (dose: 1.0 mg/kg/injection, schedule: Q01DX009 (ip), vehicle: saline with Tween-80) was 96 % of control; the T/C (dose: 2.0 mg/kg/injection, schedule: Q01DX009 (ip), vehicle: saline with Tween-80) is 151 % of control; the T/C (dose: 4.0 mg/kg/injection, schedule: Q01DX009 (ip), vehicle: saline with Tween-80) was 122 % of control; the T/C (dose: 8.0 mg/kg/injection, schedule: Q01DX009 (ip), vehicle: saline with Tween-80) is 105 % of control and 107 % of control; the T/C (dose: 16.0 mg/kg/injection, schedule: Q01DX009 (ip), vehicle: saline with Tween-80) was 105 % of control; the T/C (dose: 32.0 mg/kg/injection, schedule: Q01DX009 (ip), vehicle: saline with Tween-80) is 105 % of control. Besides, under “dose: 64.0 mg/kg/injection, schedule: Q01DX009 (ip), vehicle: saline with Tween-80”, the T/C was 112 % of control.

Consider `O=c1[nH]cc(F)c(=O)[nH]1`, for which the T/C is 104 % of control and 108 % of control (dose: 5.0 mg/kg/injection, schedule: Q01DX009 (ip), vehicle: saline); 90 % of control and 116 % of control (dose: 10.0 mg/kg/injection, schedule: Q01DX009 (ip), vehicle: saline); 104 % of control and 112 % of control (dose: 20.0 mg/kg/injection, schedule: Q01DX009 (ip), vehicle: saline); 87 % of control and 109 % of control (dose: 40.0 mg/kg/injection, schedule: Q01DX009 (ip), vehicle: saline).

In the case of `COc1cc2c(c3c1c(=O)c1ccccc1n3C)C=CC(C)(C)O2`, the T/C is, setting by setting: (dose: 16.0 mg/kg/injection, schedule: Q01DX005 (ip), vehicle: Klucel (hydroxypropylcellulose) (HPC)) 121 % of control; (dose: 32.0 mg/kg/injection, schedule: Q01DX005 (ip), vehicle: Klucel (hydroxypropylcellulose) (HPC)) 104 % of control; (dose: 64.0 mg/kg/injection, schedule: Q01DX005 (ip), vehicle: Klucel (hydroxypropylcellulose) (HPC)) 115 % of control.

Consider `CN=S(=O)(OCCCCCOS(=O)(=NC)c1ccccc1)c1ccccc1` (stereo unspecified), for which the T/C (dose: 6.25 mg/kg/injection, schedule: Q01DX009 (ip), vehicle: saline with Tween-80) was 109 % of control; the T/C (dose: 12.5 mg/kg/injection, schedule: Q01DX009 (ip), vehicle: saline with Tween-80) is 91 % of control; the T/C (dose: 25.0 mg/kg/injection, schedule: Q01DX009 (ip), vehicle: saline with Tween-80) was 100 % of control.

With `O=NN(CCCl)C(=O)NC1[C@H](O)CCC[C@@H]1O` (stereo partly specified), the T/C runs as follows: (dose: 4.32 mg/kg/injection, schedule: Q01DX001 (ip), vehicle: saline) 104 % of control; (dose: 12.0 mg/kg/injection, schedule: Q01DX001 (ip), vehicle: saline) 152 % of control.

On to `CN(C)/N=N/c1[nH]ncc1C(N)=O`, for which the T/C is 154 % of control under setting [3] and 121 % of control (dose: 128.0 mg/kg/injection, schedule: Q01DX005 (ip), vehicle: saline with Tween-80).

As for `O=C1NC2(CCCCC2)C(=O)N1CCN(CCCl)CCCl`, the T/C runs as follows: (dose: 1.5 mg/kg/injection, schedule: Q01DX009 (ip), vehicle: saline with Tween-80) 97 % of control; (dose: 3.0 mg/kg/injection, schedule: Q01DX009 (ip), vehicle: saline with Tween-80) 103 % of control; (dose: 6.0 mg/kg/injection, schedule: Q01DX009 (ip), vehicle: saline with Tween-80) 106 % of control; (dose: 12.0 mg/kg/injection, schedule: Q01DX009 (ip), vehicle: saline with Tween-80) 103 % of control.

Regarding `CSCS(=O)C[C@H](CO)NC(=O)/C=C/c1c(C)[nH]c(=O)[nH]c1=O` (stereo partly specified), the T/C was 97 % of control (dose: 0.06 mg/kg/injection, schedule: Q01DX005 (ip), vehicle: Klucel (hydroxypropylcellulose) (HPC)); 98 % of control (dose: 0.12 mg/kg/injection, schedule: Q01DX005 (ip), vehicle: Klucel (hydroxypropylcellulose) (HPC)); 103 % of control (dose: 0.25 mg/kg/injection, schedule: Q01DX005 (ip), vehicle: Klucel (hydroxypropylcellulose) (HPC)); 98 % of control (dose: 0.5 mg/kg/injection, schedule: Q01DX005 (ip), vehicle: Klucel (hydroxypropylcellulose) (HPC)).
